Test results as given in patent US7915297B2, “Isoxazole derivatives and use thereof” (SK Holdings Co., Ltd., priority 2005, dated 2011).

What was measured:
[1] = tested on: Wnt/β-catenin signaling (β-catenin activity) in SW480 cell line; assay: Cell-based Wnt agonist screening, TCF luciferase reporter, SW480 (TCF-FL); set-up: species or system human; conditions: Homo sapiens, % of LiCl (20 mM), 24 h, read-out: Max. Activity (%); for Emax at 120 µM: Con. 120 μM; for Emax at 30 µM: Con. 30 μM; for Emax at 1 µM: Con. 1 μM; for Emax at 10 µM: Con. 10 μM
Outline: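 HEK293 and SW480 lines stably carried a 5X TCF firefly luciferase reporter under G418 selection. Cells (8,000–15,000/well, RPMI 1640 with 5% FBS) were grown 24 h, then treated with compound for 24 h. Luciferase activity was expressed as percent of the 20 mM LiCl positive control.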

[2] = tested on: ST-2, a murine bone marrow stromal T cell; assay: Differentiation of ST2 cell line into osteoblasts, alkaline phosphatase activity; format: cell-based; conditions: Mus musculus, 96 h; ST-2 cells, 11 μM compound, 4 days; control treated only with ascorbic acid and β-glycerolphosphate = 100; read-out: ALP Activity (% Control)
Experimental: The derivatives synthesized according to the present invention were assayed for their ability to differentiate stem cells into osteoblasts. In this regard, ST-2, a murine bone marrow stromal T cell, was used to measure the activity of bone-specific alkaline phosphatase, a marker of early-stage osteoblast differentiation. In detail, the cell line was cultured in an MEM supplemented with penicillin-streptomycin (100 Units/mL) and heat-inactivated 5% fetal bovine serum under standard culture conditions (5% CO2, 37° C., 100% relative humidity). […] The suspension was diluted with the same medium to adjust the cell count to 5,000˜10,000 cells per well, and was moved in a 96-well microtiter, subsequently. After being incubated for 24 hrs, the cells were treated in a medium containing 50 μg/ml of ascorbic acid and 5 mM of β-glycerolphosphate with various concentrations of the isoxazole derivatives synthesized in Preparation Examples. During incubation for one to nine days, the Alkaline phosphatase activity was analyzed using a […] Assay kit (Promega, U.S.A.) according to the protocol described in the manual provided by the manufacturer. The activities were measured in cells which had been incubated at 11 μM of each of the compounds for 4 days. Data on the activities of the isoxazole derivatives synthesized are given in Tables 44 to 47 and are expressed as percentages of ALP relative to that measured in the control, which was treated only with ascorbic acid and β-glycerolphosphate. ALP activities according to the concentrations of Derivative (1) are depicted in FIG. 5.

Row | SMILES | Emax at 120 µM [1] [%] | activity at 11 µM [2] [%] | Emax at 30 µM [1] [%] | Emax at 1 µM [1] [%] | Emax at 10 µM [1] [%]
1 | CC(C)(C)c1cc(C(=O)NCCCn2ccnc2)no1 [Derivative (167), 5-tert-butyl-3-isoxazole-3-carboxylic acid (3-imidazol-1-yl-propyl)-amide] | 37 | 276 | – | – | –
2 | O=C(CCNC(=O)c1cc(-c2cccs2)on1)c1ccccc1 [Derivative (206), 5-thiophen-2-yl-isoxazole-3-carboxylic acid (3-oxo-3-phenyl-propyl)-amide] | 584 | 772 | – | – | –
3 | O=C(NCCN1CCN(c2ccccn2)CC1)c1cc(-c2ccco2)on1 [Derivative (182), 5-furan-2-yl-isoxazole-3-carboxylic acid [2-(4-pyridin-2-yl-piperazin-1-yl)-ethyl]-amide] | – | 887 | 413 | – | –
4 | Cc1cccnc1N1CCN(CCNC(=O)c2cc(-c3ccco3)on2)CC1 [Derivative (190), 5-furan-2-yl-isoxazole-3-carboxylic acid {2-[4-(3-methyl-pyridin-2-yl)-piperazin-1-yl]-ethyl}-amide] | 372 | 269 | – | – | –
5 | O=C(NCCCNc1ccccc1)c1cc(-c2ccco2)on1 [Derivative (201), 5-furan-2-yl-isoxazole-3-carboxylic acid (3-phenylamino-propyl)-amide] | – | 859 | – | 545 | –
6 | O=C(NCCc1ccc(O)cc1)c1cc(-c2cccs2)on1 [Derivative (141), 5-thiophen-2-yl-isoxazole-3-carboxylic acid [2-(4-hydroxy-phenyl)-ethyl]-amide] | 519 | 790 | – | – | –
7 | COc1ccccc1N1CCN(CCNC(=O)c2cc(-c3ccco3)on2)CC1 [Derivative (193), 5-furan-2-yl-isoxazole-3-carboxylic acid {2-[4-(2-methoxyphenyl)-piperazin-1-yl]-ethyl}-amide] | – | 173 | 382 | – | –
8 | CN(CCNC(=O)c1cc(-c2ccco2)on1)c1ccccc1 [Derivative (202), 5-furan-2-yl-isoxazole-3-carboxylic acid [2-(methyl-phenyl-amino)-ethyl]-amide] | – | 109 | 185 | – | –
9 | COc1ccc(NCCNC(=O)c2cc(-c3ccco3)on2)cc1 [Derivative (200), 5-furan-2-yl-isoxazole-3-carboxylic acid [2-(4-methoxy-phenylamino)-ethyl]-amide] | – | 162 | 106 | – | –
10 | O=C(NCCNc1ccccn1)c1cc(-c2ccco2)on1 [Derivative (204), 5-furan-2-yl-isoxazole-3-carboxylic acid [2-(pyridin-2-ylamino)-ethyl]-amide] | 369 | 150 | – | – | –
11 | O=C(NCCNCc1ccccc1)c1cc(-c2ccco2)on1 [Derivative (197), 5-furan-2-yl-isoxazole-3-carboxylic acid (2-benzylamino-ethyl)-amide] | 84 | 118 | – | – | –
12 | O=C(NCCn1cccn1)c1cc(-c2ccco2)on1 [Derivative (39), 5-furan-2-yl-isoxazole-3-carboxylic acid (2-pyrazol-1-yl-ethyl)-amide] | – | 190 | 344 | – | –
13 | O=C(NCCn1ccnc1)c1cc(-c2ccsc2)on1 [Derivative (157), 5-thiophen-3-yl-isoxazole-3-carboxylic acid (2-imidazol-1-yl-ethyl)-amide] | – | 809 | 871 | – | –
14 | O=C(NCCN1CCN(c2ccc([N+](=O)[O-])cc2)CC1)c1cc(-c2ccco2)on1 [Derivative (180), 5-furan-2-yl-isoxazole-3-carboxylic acid {2-[4-(4-nitrophenyl)-piperazin-1-yl]-ethyl}-amide] | 45 | 181 | – | – | –
15 | O=C(NCCN1CCN(c2ccc(F)cc2)CC1)c1cc(-c2ccco2)on1 [Derivative (179), 5-furan-2-yl-isoxazole-3-carboxylic acid {2-[4-(4-fluorophenyl)-piperazin-1-yl]-ethyl}-amide] | – | 356 | – | – | 73
16 | O=C(NCCN1CCN(c2ccc(Cl)cc2)CC1)c1cc(-c2ccco2)on1 [Derivative (184), 5-furan-2-yl-isoxazole-3-carboxylic acid {2-[4-(4-chlorophenyl)-piperazin-1-yl]-ethyl}-amide] | – | 126 | 70 | – | –

Row | SMILES | Emax at 120 µM [1] [%] | activity at 11 µM [2] [%] | Emax at 30 µM [1] [%] | Emax at 1 µM [1] [%] | Emax at 10 µM [1] [%]
17 | Cn1cccc1-c1cc(C(=O)NCCCn2cncn2)no1 [Derivative (150)] | – | 328 | 78 | – | –
18 | CC(C)c1ccc(NCCNC(=O)c2cc(-c3ccco3)on2)cc1 [Derivative (199), 5-furan-2-yl-isoxazole-3-carboxylic acid [2-(4-isopropyl-phenylamino)-ethyl]-amide] | – | 63 | 45 | – | –
19 | CC(C)(C)c1cc(C(=O)NCCCn2cncn2)no1 [Derivative (168), 5-tert-butyl-3-isoxazole-3-carboxylic acid (3-[1,2,4]-triazol-1-yl-propyl)-amide] | – | 97 | – | – | 40
20 | O=C(NCCN1CCN(c2ncccn2)CC1)c1cc(-c2ccco2)on1 [Derivative (192), 5-furan-2-yl-isoxazole-3-carboxylic acid [2-(4-pyrimidin-2-yl-piperazin-1-yl)-ethyl]-amide] | – | 398 | 137 | – | –
21 | CC(=O)N1CCN(CCNC(=O)c2cc(-c3ccco3)on2)CC1 [Derivative (178), 5-furan-2-yl-isoxazole-3-carboxylic acid [2-(4-acetyl-piperazin-1-yl)-ethyl]-amide] | 301 | 475 | – | – | –
22 | COc1ccc(N2CCN(CCNC(=O)c3cc(-c4ccco4)on3)CC2)cc1OC [Derivative (186), 5-furan-2-yl-isoxazole-3-carboxylic acid {2-[4-(3,4-dimethoxyphenyl)-piperazin-1-yl]-ethyl}-amide] | – | 272 | 553 | – | –
23 | O=C(NCCn1cncn1)c1cc(-c2ccoc2)on1 [Derivative (154), 5-furan-3-yl-isoxazole-3-carboxylic acid (2-[1,2,4]-triazol-1-yl-ethyl)-amide] | 113 | 310 | – | – | –
24 | O=C(NCCCn1ccnc1)c1cc(N2CCOCC2)on1 [Derivative (161), 5-morpholin-4-yl-isoxazole-3-carboxylic acid (3-imidazol-1-yl-propyl)-amide] | 33 | 89 | – | – | –
25 | O=C(NCCN1CCN(c2ncccc2C(F)(F)F)CC1)c1cc(-c2ccco2)on1 [Derivative (191), 5-furan-2-yl-isoxazole-3-carboxylic acid {2-[4-(3-trifluoromethyl-pyridin-2-yl)-piperazin-1-yl]-ethyl}-amide] | – | 309 | 91 | – | –
26 | O=C(NCCCn1cncn1)c1cc(-c2cc3ccccc3o2)on1 [Derivative (170), 5-benzofuran-2-yl-isoxazole-3-carboxylic acid (3-[1,2,4]triazol-1-yl-propyl)-amide] | – | 74 | 46 | – | –
27 | COc1cccnc1N1CCN(CCNC(=O)c2cc(-c3ccco3)on2)CC1 [Derivative (189), 5-furan-2-yl-isoxazole-3-carboxylic acid {2-[4-(3-methoxy-pyridin-2-yl)-piperazin-1-yl]-ethyl}-amide] | – | 220 | 238 | – | –
28 | CN(CCCNC(=O)c1cc(-c2ccco2)on1)c1ccccc1 [Derivative (203), 5-furan-2-yl-isoxazole-3-carboxylic acid [3-(methyl-phenyl-amino)-propyl]-amide] | – | 260 | 851 | – | –
29 | O=C(NCCOc1ccccc1)c1cc(-c2cccs2)on1 [Derivative (215), 5-thiophen-2-yl-isoxazole-3-carboxylic acid (2-phenoxy-ethyl)-amide] | – | 162 | 90 | – | –
30 | O=C(CNC(=O)c1cc(-c2ccco2)on1)Nc1ccccn1 [Derivative (208), 5-furan-2-yl-isoxazole-3-carboxylic acid (pyridin-2-ylcarbamoylmethyl)-amide] | – | 57 | 110 | – | –
31 | COc1cc(OC)cc(N2CCN(CCNC(=O)c3cc(-c4ccco4)on3)CC2)c1 [Derivative (188), 5-furan-2-yl-isoxazole-3-carboxylic acid {2-[4-(3,5-dimethoxyphenyl)-piperazin-1-yl]-ethyl}-amide] | – | 151 | – | 200 | –
